In PMC11674305, “Inhibition of Neural Crest Cell Migration by Strobilurin Fungicides and Other Mitochondrial Toxicants” (Cells, 2024):

Tests used:
[1] = cited from earlier work
complex III (cIII) = target: T1, complex III (cIII) (Homo sapiens, UniProt P00156); test: Electron transport chain complex activity in permeabilized NCC (Seahorse); format: cell-based; conditions: 60 μM (BMC10(V) of cMINC)
T1 construct: endogenous in cells; host or cells: neural crest cells (NCC), digitonin-permeabilized
Excerpt: Magel et al. (2024): Inhibition of neural crest cells migration by strobilurin fungicides
Figure S9. Inhibition of electron transport chain complexes by picoxystrobin in neural crest […]
NCC were exposed to the BMC10(V) of the cMINC assay (60 μ M). The grey area indicates th e non-significant range of the assay (≤ 25% change). The effect on complex IV (cIV) was non-significant (green bar). The purple bar indicates complex III (cIII) inhibition. Yellow bars […]
that for these assays, the electrons have to pass cIII to reach cIV (oxygen consumption), i.e. electrons from cI (or cII) cannot be used for the reduction of oxygen, as they need to flow through cIII (which is blocked). The pattern of inhibition is indicative of cIII as illustrated earlier (Delp et al., 2019; van der Stel et al., 2020).
To investigate the inhibition pattern of picoxystrobin, NCC were permeabilized and complex-specific substrates and inhibitors were sequentially injected as described earlier (Delp et al., 2019). In detail, cells were permeabilized with MAS buffer (220 mM mannitol, 1 mM ADP, 70 mM sucrose, 10 mM KH2PO4, 5 mM MgCl2, 2 mM HEPES, 1 mM EGTA, 4 mg/ml fatty acid-free BSA, pH = 7.2) supplemented with 25 μ g/mL digitonin. Seahorse measurements were started directly afterwards, and basal OCRs were assessed for internal normalization. Then picoxystrobin was injected and cI activity was assessed. […]

[2] = set-up: species or system human
Experimental: Figure 8 Consideration of biokinetics for refined hazard (potency) estimates. (A) Concentration–response curve of the oxygen consumption rate (OCR) in NCCs cultured in galactose medium after a 24 h treatment with picoxystrobin. The highest tested concentration was 2.8 µM (highest non-cytotoxic exposure). Data are shown for two independent experiments (as in Figure 7B). (B) The cMINC assay was performed as in Figure 1, but the NCCs were cultured in galactose medium. The insert box gives picoxystrobin potency data for migration (M) and cytotoxicity (V), and their ratio. Data are expressed as means ± SEM from seven independent experiments. (C) Schematic illustration of the distribution of picoxystrobin in a cell culture well according to the in silico biokinetics prediction model. Data for each compartment are given either as percentage (left) or as concentrations (right) for a nominal concentration of 1 µM. (D) Tabular overview of the distribution of picoxystrobin in the different compartments at a nominal concentration of 1 µM. Mediumt: total medium; Mediumb: bound in medium; Mediumu: unbound in medium; Cellst: total amount in cells; CellsM: mitochondrial compartment; CellsL: lysosomal compartment; CellsR: “rest” of the cells. […] (E) Synoptic overview of predicted and measured concentrations of picoxystrobin. […]

In the case of `CO/C=C(/C(=O)OC)c1ccccc1COc1cccc(C(F)(F)F)n1` [Picoxystrobin, picoxystrobin], the “blood to plasma ratio” value [1] is listed as 0.71, the “fraction unbound in blood plasma” value [1] is listed as 0.0127 and the “effect on complex III (cIII)” value (complex III (cIII)) is listed as “inhibition of complex III”. The “MoE for fetus (nominal data)” value [2] was 2-100 fold.
